Target: T1, interaction of Gal3 and Abeta (1-42) oligomer (Homo sapiens, UniProt P17931)
T1 construct: His
Experiment: Gal3-Abeta (1-42) oligomer blocking ELISA
Type: binding
Details: at 10,000 nM
Procedure: To identify Gal3-targeted antibodies with the ability to block the interaction of Gal3 and Abeta, purified Gal3 and Abeta (1-42) peptide and oligomer were incubated in the presence (or absence) of various Gal3-targeted or control antibodies, or without antibody, and protein interaction was evaluated by ELISA.
The plate was incubated for an hour at room temperature with gentle rocking. Thereafter, the plate was washed three times with PBST. […] The plate was incubated at room temperature for an hour with gentle rocking and then washed three times with PBST. […] Percent blockade of Gal3-Abeta (1-42) peptide or oligomer interaction was calculated as the fraction of signal obtained in the absence of antibody with the background signal subtracted.
The plate was incubated for an hour at room temperature with gentle rocking. Thereafter, the plate was washed three times with PBST. […] The plate was incubated at room temperature for an hour with gentle rocking and then washed three times with PBST. […] Percent blockade of Gal3-Abeta (1-42) oligomer interaction was calculated as the fraction of signal obtained in the absence of antibody or inhibitor with the background signal subtracted.

T1 sequence (P17931 2-250 limits assumed): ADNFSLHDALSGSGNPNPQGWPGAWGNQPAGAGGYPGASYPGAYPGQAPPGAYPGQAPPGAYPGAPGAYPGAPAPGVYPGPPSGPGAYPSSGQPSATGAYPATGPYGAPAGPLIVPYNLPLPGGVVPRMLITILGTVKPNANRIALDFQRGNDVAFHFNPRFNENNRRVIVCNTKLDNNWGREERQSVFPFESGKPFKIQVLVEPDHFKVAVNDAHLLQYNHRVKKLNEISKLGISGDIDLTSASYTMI

Percent blockade of Gal3-Abeta (1-42) oligomer interaction: at most 19%
SMILES: OC[C@H]1O[C@@H](S[C@@H]2O[C@H](CO)[C@H](O)[C@H](n3cc(-c4cccc(F)c4)nn3)[C@H]2O)[C@H](O)[C@@H](n2cc(-c3cccc(F)c3)nn2)[C@H]1O [TD139]
